Measurements taken from PubChem BioAssay AID1919001 (Molecular Pharmacology Branch, DTP, NCI, 2023).
pIC50: −log10 of the molar value.

Tested on: 699152-130-R-J1-PDC complex spheroid growth
Experiment: Anticancer human tumor 699152-130-R-J1-PDC patient-derived pancreatic carcinoma cell line growth inhibition [AhR]
Conditions: for pIC50: curve of first compound; for viability, T/C: stronger effect = lower value
In short: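 Complex tumor spheroids co-cultured with HUVEC and human MSC stroma; AhR antagonists tested in combination with standard-of-care and investigational agents. Top concentration at or near clinical Cmax (else 10 microM), half-log dilutions; growth expressed as percent test/control.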
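Also: compound exposure lasted 7 days after spheroids had grown for 3 days.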

CC1(C)CCC(CN2CCN(c3ccc(C(=O)NS(=O)(=O)c4ccc(NCC5CCOCC5)c([N+](=O)[O-])c4)c(Oc4cnc5[nH]ccc5c4)c3)CC2)=C(c2ccc(Cl)cc2)C1 + CC(CO)NC(=O)c1cc(-c2ccc(Cl)cc2)nn(-c2cnn(C)c2)c1=O
pIC50 (second compound 0.1 µM): < 5.00 | pIC50 (second compound 0.316 µM): < 5.00 | pIC50 (second compound 1 µM): < 5.00 | pIC50 (second compound 3.16 µM): < 5.00 | pIC50 (second compound 10 µM): < 5.00 | viability, T/C (second compound 0.1 µM, first compound 0.0316 µM): 102% | viability, T/C (second compound 0.1 µM, first compound 0.1 µM): 119% | viability, T/C (second compound 0.1 µM, first compound 0.316 µM): 95.8% | viability, T/C (second compound 0.1 µM, first compound 1 µM): 111% | viability, T/C (second compound 0.1 µM, first compound 3.16 µM): 89.1% | viability, T/C (second compound 0.1 µM, first compound 10 µM): 60.5% | viability, T/C (second compound 0.316 µM, first compound 0.0316 µM): 104% | viability, T/C (second compound 0.316 µM, first compound 0.1 µM): 109% | viability, T/C (second compound 0.316 µM, first compound 0.316 µM): 96.5% | viability, T/C (second compound 0.316 µM, first compound 1 µM): 92.2% | viability, T/C (second compound 0.316 µM, first compound 3.16 µM): 87.1% | viability, T/C (second compound 0.316 µM, first compound 10 µM): 63.1% | viability, T/C (second compound 1 µM, first compound 0.0316 µM): 96.2% | viability, T/C (second compound 1 µM, first compound 0.1 µM): 108% | viability, T/C (second compound 1 µM, first compound 0.316 µM): 105% | viability, T/C (second compound 1 µM, first compound 1 µM): 102% | viability, T/C (second compound 1 µM, first compound 3.16 µM): 95.4% | viability, T/C (second compound 1 µM, first compound 10 µM): 66% | viability, T/C (second compound 3.16 µM, first compound 0.0316 µM): 98% | viability, T/C (second compound 3.16 µM, first compound 0.1 µM): 100% | viability, T/C (second compound 3.16 µM, first compound 0.316 µM): 102% | viability, T/C (second compound 3.16 µM, first compound 1 µM): 83% | viability, T/C (second compound 3.16 µM, first compound 3.16 µM): 96.9% | viability, T/C (second compound 3.16 µM, first compound 10 µM): 65% | viability, T/C (second compound 10 µM, first compound 0.0316 µM): 90.8% | viability, T/C (second compound 10 µM, first compound 0.1 µM): 91.3% | viability, T/C (second compound 10 µM, first compound 0.316 µM): 97.5% | viability, T/C (second compound 10 µM, first compound 1 µM): 84.2% | viability, T/C (second compound 10 µM, first compound 3.16 µM): 84.4% | viability, T/C (second compound 10 µM, first compound 10 µM): 73.7%

CCN(c1cc(-c2ccc(CN3CCOCC3)cc2)cc(C(=O)NCc2c(C)cc(C)[nH]c2=O)c1C)C1CCOCC1 + CC(CO)NC(=O)c1cc(-c2ccc(Cl)cc2)nn(-c2cnn(C)c2)c1=O
pIC50 (second compound 0.1 µM): < 5.52 | pIC50 (second compound 0.316 µM): < 5.52 | pIC50 (second compound 1 µM): < 5.52 | pIC50 (second compound 3.16 µM): < 5.52 | pIC50 (second compound 10 µM): < 5.52 | viability, T/C (second compound 0.1 µM, first compound 0.00949 µM): 97.8% | viability, T/C (second compound 0.1 µM, first compound 0.03 µM): 105% | viability, T/C (second compound 0.1 µM, first compound 0.0949 µM): 99.2% | viability, T/C (second compound 0.1 µM, first compound 0.3 µM): 96.2% | viability, T/C (second compound 0.1 µM, first compound 0.949 µM): 100% | viability, T/C (second compound 0.1 µM, first compound 3 µM): 102% | viability, T/C (second compound 0.316 µM, first compound 0.00949 µM): 107% | viability, T/C (second compound 0.316 µM, first compound 0.03 µM): 99.4% | viability, T/C (second compound 0.316 µM, first compound 0.0949 µM): 96.6% | viability, T/C (second compound 0.316 µM, first compound 0.3 µM): 94.5% | viability, T/C (second compound 0.316 µM, first compound 0.949 µM): 94.6% | viability, T/C (second compound 0.316 µM, first compound 3 µM): 99.4% | viability, T/C (second compound 1 µM, first compound 0.00949 µM): 105% | viability, T/C (second compound 1 µM, first compound 0.03 µM): 106% | viability, T/C (second compound 1 µM, first compound 0.0949 µM): 108% | viability, T/C (second compound 1 µM, first compound 0.3 µM): 97.3% | viability, T/C (second compound 1 µM, first compound 0.949 µM): 99.4% | viability, T/C (second compound 1 µM, first compound 3 µM): 111% | viability, T/C (second compound 3.16 µM, first compound 0.00949 µM): 97.1% | viability, T/C (second compound 3.16 µM, first compound 0.03 µM): 89.1% | viability, T/C (second compound 3.16 µM, first compound 0.0949 µM): 104% | viability, T/C (second compound 3.16 µM, first compound 0.3 µM): 91.2% | viability, T/C (second compound 3.16 µM, first compound 0.949 µM): 83.6% | viability, T/C (second compound 3.16 µM, first compound 3 µM): 95.1% | viability, T/C (second compound 10 µM, first compound 0.00949 µM): 93.9% | viability, T/C (second compound 10 µM, first compound 0.03 µM): 92.2% | viability, T/C (second compound 10 µM, first compound 0.0949 µM): 95.1% | viability, T/C (second compound 10 µM, first compound 0.3 µM): 85% | viability, T/C (second compound 10 µM, first compound 0.949 µM): 86.5% | viability, T/C (second compound 10 µM, first compound 3 µM): 87.5%
